Laboratory results published in patent publication US9849138B2, “1,4-benzodiazepone-2,5-diones and related compounds with therapeutic properties” (The Regents of the University of Michigan, priority 2009, dated 2017).

Assays:
[1] = target: ROCK-II (h, amino acids 11-552) (Homo sapiens (Human), UniProt O75116); assay: ROCK-II (h) inhibition assay; type: biochemical; settings: [γ-32P-ATP] filter assay, 40 minutes at room temperature, read-out: ROCK2 IC50
Description: ROCK-II (h) Inhibition Assay:
In a final reaction volume of 25 μL, ROCK-II (h, amino acids 11-552) (5-10 mU) was incubated with 50 mM Tris pH 7.5, 0.1 mM EGTA, 30 μM […], 10 mM magnesium acetate and [γ-^32P-ATP] (specific activity approx. 500 cpm/pmol, concentration as required). The reaction was initiated by the addition of the MgATP mix. After incubation for 40 minutes at room temperature, the reaction was stopped by the addition of 5 μL of a 3% phosphoric acid solution. 10 μL of the reaction was then spotted onto a P30 filter-mat and washed three times for 5 minutes in 75 mM phosphoric acid and once in methanol prior to drying and scintillation counting.

[2] = tested on: ROCK; settings: competition with intracellular micromolar ATP; cited from earlier work
[3] = tested on: neointimal formation; settings: rats; cited from earlier work
[4] = tested on: ventricular hypertrophy and function; settings: Dahl salt-sensitive rats; cited from earlier work
[5] = tested on: blood pressure; settings: spontaneously hypertensive, renal hypertensive and deoxycortisone acetate salt hypertensive rats; cited from earlier work
[6] = tested on: infarct size and neurologic deficit; settings: rat stroke model; cited from earlier work
[7] = tested on: coronary stenosis; settings: porcine, long term treatment; cited from earlier work

ROCK-II (h, amino acids 11-552), sequence (O75116 11-552): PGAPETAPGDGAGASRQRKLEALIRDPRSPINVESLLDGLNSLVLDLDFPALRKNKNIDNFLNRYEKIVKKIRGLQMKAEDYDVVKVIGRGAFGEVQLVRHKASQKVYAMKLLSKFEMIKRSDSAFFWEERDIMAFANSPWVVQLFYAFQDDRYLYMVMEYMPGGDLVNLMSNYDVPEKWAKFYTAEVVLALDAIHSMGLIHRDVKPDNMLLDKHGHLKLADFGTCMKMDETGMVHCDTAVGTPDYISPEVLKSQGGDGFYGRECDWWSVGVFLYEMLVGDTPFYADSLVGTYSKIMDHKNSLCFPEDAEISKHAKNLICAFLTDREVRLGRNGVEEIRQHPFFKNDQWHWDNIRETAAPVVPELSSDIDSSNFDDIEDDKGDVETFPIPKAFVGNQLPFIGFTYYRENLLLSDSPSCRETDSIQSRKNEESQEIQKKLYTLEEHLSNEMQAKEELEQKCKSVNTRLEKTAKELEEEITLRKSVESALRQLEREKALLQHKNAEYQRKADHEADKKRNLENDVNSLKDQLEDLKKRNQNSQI

SMILES: C[C@@]1(Cc2ccc(-c3ccncc3)cc2)NC(=O)c2cc(Cl)ccc2NC1=O [Compound 2, (S)-7-chloro-3-methyl-3-(4-(pyridin-4-yl)benzyl)-3,4-dihydro-1H-benzo[e][1,4]diazepine-2,5-dione]
- IC50 [1]: > 10 µM

SMILES: CN1C(=O)[C@@H](Cc2ccc(-c3ccncc3)cc2)NC(=O)c2cccc(Cl)c21 [Compound 5, (R)-9-chloro-1-methyl-3-(4-(pyridin-4-yl)benzyl)-3,4-dihydro-1H-benzo[e][1,4]diazepine-2,5-dione]
- IC50 [1]: 1 µM

SMILES: C[C@@H](N)[C@H]1CC[C@H](C(=O)Nc2ccncc2)CC1 [Compound Y-27632, Y-27632]
- decrease in activity in cellular assays as compared to in vitro activities [2]: 100-1,000 fold
- effect on neointimal formation [3]: inhibited neointimal formation
- effect on ventricular hypertrophy and function [4]: improve ventricular hypertrophy and function
- effect on blood pressure [5]: significantly decrease blood pressure

SMILES: O=S(=O)(c1cccc2cnccc12)N1CCCNCC1 [fasudil]
- effect on infarct size and neurologic deficit [6]: reduce both the infarct size and neurologic deficit
- effect on coronary stenosis [7]: progressively reduce coronary stenosis
